Results: US20240294460A1, “DEUTERATED ANALOGS AND DERIVATIVES OF 4-BROMO-2,5-DIMETHOXYPHEN[…] USES THEREOF” (Terran Biosciences Inc., priority 2021, published 2024)
Several values for one entry are separate records, joined by “and”; a condition that tells them apart may be missing. Equal values may be shown once. Where a name gives a salt, the structure may show the parent alone.

Experiment: Metabolic stability in human liver microsomes
Conditions: substrate 1 μM, NADPH 1 mM, 37° C., 0-45 min; for microsomal CLint at 1 μM / half-life at 1 μM: human, microsomes; for microsomal CLint at 1 μM: pH 7.4, CLint; for half-life at 1 μM: pH 7.4, t1/2, pooled human liver microsomes 0.5 mg/mL
Procedure: Pooled human liver microsomes were purchased from a commercial supplier. Microsomes were stored at −80° C. prior to use. […] A minus cofactor control incubation was included for each test compound where 0.1 M phosphate buffer pH 7.4 was added instead of NADPH (minus NADPH). Two control compounds (dextromethorphan and verapamil) were included with each test compound. All incubations were performed individually for each test compound. […] The reactions were stopped by transferring incubate into acetonitrile at the appropriate time points, in a 1:3 ratio. The termination plates were then centrifuged at 3,000 rpm for 20 min at 4° C. to precipitate the protein.
From a plot of ln peak area ratio (test compound peak area/internal standard peak area) against time, the gradient of the line was determined.
Elimination rate constant (k)=(−gradient)
where V=Incubation volume (μL)/Microsomal protein (mg).

[1] = pooled human liver microsomes 0.5 mg/mL

SMILES | microsomal CLint at 1 μM [1] [µL/min/mg] | half-life at 1 μM [h] | CLint [1] | t1/2 [1]
Cl.[2H]C([2H])(N)Cc1cc(OC)c(Br)cc1OC([2H])([2H])[2H] [2-(4-bromo-5-methoxy-2-(methoxy-d3)phenyl)ethan-1,1-d2-1-amine hydrochloride] | 12.4 | 1.87 |  | 
Cl.[2H]C([2H])([2H])Oc1cc(Br)c(OC)cc1C([2H])([2H])C([2H])([2H])N [2-(4-bromo-5-methoxy-2-(methoxy-d3)phenyl)ethan-1,1,2,2-d4-1-amine hydrochloride] | 11.9 | 1.95 |  | 
Cl.[2H]C([2H])([2H])Oc1cc(Br)c(OC)cc1CCN [2-(4-bromo-5-methoxy-2-(methoxy-d3)phenyl)ethan-1-amine hydrochloride] | 18.2 | 1.27 |  | 
Cl.[2H]C([2H])([2H])Oc1cc(C([2H])([2H])C([2H])([2H])N)c(OC)cc1Br [2-(4-bromo-2-methoxy-5-(methoxy-d3)phenyl)ethan-1,1,2,2-d4-1-amine hydrochloride] | 10.5 | 2.2 |  | 
Cl.[2H]C([2H])(N)Cc1cc(OC([2H])([2H])[2H])c(Br)cc1OC [2-(4-bromo-2-methoxy-5-(methoxy-d3)phenyl)ethan-1,1-d2-1-amine hydrochloride] | 10.9 | 2.12 |  | 
COc1ccc2c(c1)[C@]13CCCC[C@@H]1[C@H](C2)N(C)CC3 [dextromethorphan, reference compound] | 51.2 | 0.452 | 53.0 μL/min/mg protein and 55.0 μL/min/mg protein | 0.437 h and 0.42 h
COc1cc(CCN)c(OC)cc1Br [2C-B HCl salt, 4-bromo-2,5-dimethoxyphenethylamine, reference compound] | 9.56 | 2.42 |  | 
Cl.[2H]C([2H])([2H])Oc1cc(CCN)c(OC)cc1Br [2-(4-Bromo-2-methoxy-5-(methoxy-d3)phenyl)ethan-1-amine hydrochloride] | 9.22 | 2.5 |  | 
